Data: patent publication US20210267929A1, “COMPOSITIONS AND METHODS FOR TREATMENT OF ORAL ULCERATION AND ORAL MUCOSITIS” (CelaCare Technologies, Inc., priority 2018, published 2021)
In brackets after ≈: the same amount, converted by molar mass.

Assays:
[1] = system: Candida albicans ATCC 10231; experiment: Broth microdilution MIC (EUCAST), oral rinse vs marketed antifungals; type: cell-based; conditions: 35° C., 48 hours, at least 50% OD530 inhibition; for MIC: ATCC10231, RPMI + 2% glucose, read-out: MIC (mg/L) Mean
Excerpt: (§1) The purpose of this experiment was to determine the potency of one embodiment of the oral rinse on different Candida species, namely Candida albicansATCC 10231 and ATCC 24433, Candida glabrataATCC 15126, Candida krusei (Issechenkia orientalis)ATCC 6258, Candida parapsilosisATCC 22019, and Candida tropicalisATCC 1369, to determine the minimum inhibitory concentration (MIC) of the oral rinse on each species. The oral rinse was compared to current antifungal treatments on the market.
(§2) The embodiment of the oral rinse 150528 tested in this experiment included 10 μg/mL silver citrate complex, 3 mg/mL acemannan, 5 mg/mL Disodium EDTA, 0.1 mg/mL Hyaluronic acid, 2 mg/mL PVP, 3.5 mg/ml of masking and cherry flavor, purified water, pH adjustment with tris(hydroxymethyl)aminomethane to a pH of 6.59. The current antifungal treatments that were tested and compared were Fluconazole (Sigma-Aldrich, Cat: PHR1160-1G, Lot LRAA6502) a Nystatin suspension (Sigma-Aldrich, Cat: N6261-SMU, Lot 020M13491V), and Gentian Violet (1% Humco, Cat: NDC 0395-1003-92, Lot547845).
(§3) The antimicrobial activity of the oral rinse solution as described above, Example 1, was tested using the micro-tube dilution method described in the Method for Determination of Broth Dilution MICs of Antifungal agents for fermentative yeasts, published by the European Committee for Antimicrobial Susceptibility Testing (EUCAST). In brief, a standard inoculum of each microorganism was prepared by diluting a 0.5 MacFarland turbidity standard of the microorganism 1:100 in RPMI media without sodium bicarbonate plus 2% glucose. Then, 100 μL of the standard inoculum was added to equal volumes of two-fold serial dilutions of the oral rinse solution or controls, and the plates were incubated at 35° C. for 48 hours. MICs were determined photometrically as the lowest antimicrobial agent concentration (last well in the dilution series) that inhibited OD530 absorbance at least 50%. Each experiment was performed three times, with each antimicrobial agent tested in duplicate or triplicate.

[2] = system: Candida albicans ATCC 24433; experiment: as above; type: cell-based; conditions: 35° C., 48 hours, at least 50% OD530 inhibition; for MIC: ATCC24433, RPMI + 2% glucose, read-out: MIC (mg/L) Mean
Excerpt: as §1, §2, §3

[3] = system: Candida glabrata ATCC 15126; experiment: as above; type: cell-based; conditions: 35° C., 48 hours, at least 50% OD530 inhibition; for MIC: Nakaseomyces glabratus, ATCC15126, RPMI + 2% glucose, read-out: MIC (mg/L) Mean
Excerpt: as §1, §2, §3

[4] = system: Candida parapsilosis ATCC 22019; experiment: as above; type: cell-based; conditions: 35° C., 48 hours, at least 50% OD530 inhibition; for MIC: Lodderomyces parapsilosis, ATCC22019, RPMI + 2% glucose, read-out: MIC (mg/L) Mean
Excerpt: as §1, §2, §3

[5] = system: Candida tropicalis ATCC 1369; experiment: as above; type: cell-based; conditions: 35° C., 48 hours, at least 50% OD530 inhibition; for MIC: ATCC1369, RPMI + 2% glucose, read-out: MIC (mg/L) Mean
Excerpt: as §1, §2, §3

[6] = system: Issatchenkia orientalis ATCC 6258 (formerly known as Candida krusei); experiment: as above; type: cell-based; conditions: 35° C., 48 hours, at least 50% OD530 inhibition; for MIC: Pichia kudriavzevii, ATCC6258, RPMI + 2% glucose, read-out: MIC (mg/L) Mean
Excerpt: as §1, §2, §3

[7] = system: Candida albicans ATCC 24433; experiment: Broth microdilution MIC (CLSI M27), oral rinses, silver API and controls; type: cell-based; conditions: 35° C., 24 hours, at least 50% OD530 inhibition; for MIC: ATCC24433, CLSI M27, RPMI, read-out: MIC (mg/L) Mean
Procedure: (§4) This experiment tested two examples of the oral rinse in the treatment of three different Candida organisms associated with oral mucositis. The embodiments of the Oral Rinses tested in this experiment were: • Oral Rinse 170915-10 μg/mL silver citrate complex, 4 mg/mL acemannan, 5 mg/mL Disodium EDTA, 0.1 mg/mL Hyaluronic acid, 2 mg/mL PVP, 5.75 mg/ml of masking and cherry flavor, purified water, pH adjustment with tris(hydroxymethyl)aminomethane to a pH of 6.36. • Oral Rinse 170719-8 μg/mL silver citrate complex, 3.9 mg/mL acemannan, 5 mg/mL Disodium EDTA, 0.1 mg/mL Hyaluronic acid, 2 mg/mL PVP, 5.75 mg/ml of masking agent and cherry flavor, purified water, pH adjustment with tris(hydroxymethyl)aminomethane to a pH of 6.38.
(§5) The antimicrobial activity of two oral rinse solutions as described above, Example 2, was tested using the microtube dilution method described in the Clinical and Laboratory Standards Institute (CLSI) Reference Method for Broth Dilution Antifungal Susceptibility Testing of Yeasts, M27-4. In brief, a standard inoculum of each microorganism was prepared by diluting a 0.5 MacFarland turbidity standard of the microorganism 1:100 in RPMI media without sodium bicarbonate. Then, 100 μL of the standard inoculum was added to equal volumes of two-fold serial dilutions of the silver API (active pharmaceutical ingredient, silver citrate complex), controls, or the oral rinse solution, and the plates were incubated at 35° C. for 24 hours. MICs were determined photometrically as the lowest antimicrobial agent concentration (last well in the dilution series) that inhibited OD530 absorbance at least 50%. Each experiment was performed three times, with each antimicrobial agent tested in duplicate or triplicate.

[8] = system: Candida parapsilosis ATCC 22019; experiment: as above; type: cell-based; conditions: 35° C., 24 hours, at least 50% OD530 inhibition; for MIC: Lodderomyces parapsilosis, ATCC22019, CLSI M27, RPMI, read-out: MIC (mg/L) Mean
Procedure: as §4, §5

[9] = system: Issatchenkia orientalis ATCC 5258 (formerly known as Candida krusei); experiment: as above; type: cell-based; conditions: 35° C., 24 hours, at least 50% OD530 inhibition; for MIC: Pichia kudriavzevii, ATCC5258, CLSI M27, RPMI, read-out: MIC (mg/L) Mean
Procedure: as §4, §5

[10] = estimated from animal studies in mice, rats, dogs, and monkeys; cited from earlier work
[11] = according to the EPA; cited from earlier work
[12] = total body contents from past cases; cited from earlier work
[13] = system: Candida parapsilosis ATCC 22019; conditions: expected control range; cited from earlier work
[14] = system: Issatchenkia orientalis ATCC 5258 (formerly known as Candida krusei); conditions: expected control range; cited from earlier work
[15] = system: Staphylococcus aureus ATCC 29213; experiment: Microtube dilution MIC (CLSI M07), oral rinses vs vancomycin; type: cell-based; conditions: ATCC29213, read-out: MIC (mg/L) Mean
Excerpt: The purpose of this experiment was to determine the potency of one embodiment of the oral rinse on three common gram-positive cocci species tested: Staphylococcus aureus, Streptococcus pneumoniae, Streptococcus pyogenes by determining the minimal inhibitory concentrations (MIC) of the oral rinse on each species. The oral rinse was compared to vancomycin, a common antibiotic used to treat various infections.
The embodiment of the oral rinses (170915 and 171003) tested in this experiment included 10 ug/mL silver citrate complex, 4 mg/mL acemannan, 5 mg/mL Disodium EDTA, 0.1 mg/mL Hyaluronic acid, 2 mg/mL PVP, […] of masking and cherry flavor, purified water, and pH adjustment with tris(hydroxymethyl)aminomethane to a pH of 6.36 and pH of 6.40, respectively. The vancomycin control (Sigma-Aldrich, Cat: PHR1160-1G, Lot LRAA9717, 5120 ppm) was reconstituted 20.5 mg/4 mL RO water.
The antimicrobial activity of this embodiment of the oral rinse solution was tested using the microtube dilution method for determining minimal inhibitory concentrations (MIC) described in the Clinical and Laboratory Standards (CLSI) Methods for Dilution Antimicrobial Susceptibility Tests for Bacteria that Grow Aerobically, M07, 11th ed, Approved January 2018. […]

[16] = system: Staphylococcus aureus ATCC 29213; conditions: expected control range; cited from earlier work
[17] = system: Streptococcus pneumoniae ATCC 49619; conditions: expected control range; cited from earlier work
[18] = type: cell-based
Procedure: The product has been evaluated for cytotoxicity and deemed to be non-cytotoxic using a standard protocol at a GLP laboratory. […] A safety study for acemannan in humans was conducted to evaluate its effect in the treatment of oral aphthous ulcers. The initial study of 50 healthy patients received 0.5% acemannan incorporated into a Carbopol thickener applied to the oral mucosa of the lower lip three times a day for 7 days. Oral exams and kidney and liver function were evaluated prior to and at the end of the study. […] Since the present compositions are utilized as an oral rinse, acemannan is not expected to be absorbed systemically through the mucosa and will merely coat the patients' mouths. Acemannan has also previously been cleared to market in oral device products. Based on current safety data on the ingredients incorporated into the compositions and the 14-day duration of use for patients in the study, the compositions will not provide significant patient risks when dosed as intended.

healthy patients = conditions: in vivo; cited from earlier work

In the case of `CN(C)c1ccc(C(=C2C=CC(=[N+](C)C)C=C2)c2ccc(N(C)C)cc2)cc1` [Gentian Violet], the MIC [1] is reported as 0.3 mg/L, the MIC [2] is reported as 0.3 mg/L and the MIC [3] is reported as 1.02 mg/L. It also gave an MIC [4] of 0.2 mg/L, an MIC [5] of 0.3 mg/L and an MIC [6] of 0.3 mg/L.
For Silver citrate complex, the “MIC (mg/L) Mean” value ([7]; CLSI M27, RPMI) was 0.234 mg/L, the “MIC (mg/L) Mean” value ([8]; CLSI M27, RPMI) was 0.088 mg/L and the “MIC (mg/L) Mean” value ([9]; CLSI M27, RPMI) was 0.117 mg/L.
With `C[C@@H]1[C@H](O)[C@@H](C)/C=C/C=C/CC/C=C/C=C/C=C/C=C/C(O[C@H]2O[C@H](C)[C@@H](O)[C@H](N)[C@@H]2O)CC2O[C@](O)(CC(O)C(O)CCC(O)CC(O)CC(O)CC(=O)O[C@H]1C)CC(O)C2C(=O)O` (stereo partly shown) [Nystatin] the “MIC (mg/L) Mean” value ([1]; RPMI + 2% glucose) was 3.9 mg/L, the “MIC (mg/L) Mean” value ([2]; RPMI + 2% glucose) was 4.8 mg/L and the “MIC (mg/L) Mean” value ([3]; RPMI + 2% glucose) was 2.7 mg/L. For the same compound, the “MIC (mg/L) Mean” value ([4]; RPMI + 2% glucose) was 2.7 mg/L, the “MIC (mg/L) Mean” value ([5]; RPMI + 2% glucose) was 2.2 mg/L and the “MIC (mg/L) Mean” value ([6]; RPMI + 2% glucose) was 5.4 mg/L.
For `[Ag]` [silver], the “human elimination of silver from oral ingestion” value [10] is given as 90%, the “safe lifetime continuous exposure” value [11] is given as 5 micrograms/kg/day and the “total amount of silver required to cause argyria” value [12] is given as 3.8 to 6.4 g.
Compound `OC(Cn1cncn1)(Cn1cncn1)c1ccc(F)cc1F` [Fluconazole] has an MIC [1] of 1.2 mg/L, an MIC [2] of 0.5 mg/L and an MIC [3] of 7.3 mg/L. It also gave an MIC [4] of 1.2 mg/L, an MIC [5] of 0.5 mg/L and an MIC [6] of 24 mg/L. For the same compound, the MIC [7] was 0.583 mg/L (≈ 1.9 µM), the MIC [8] was 1.67 mg/L (≈ 5.44 µM) and the MIC [9] was 14.7 mg/L (≈ 47.9 µM). For the same compound, the “MIC Control Range” value [13] was 0.5 to 4.0 µg/mL and the “MIC Control Range” value [14] was 8 to 64 µg/mL.
In the case of `CN[C@H](CC(C)C)C(=O)N[C@H]1C(=O)N[C@@H](CC(N)=O)C(=O)N[C@H]2C(=O)N[C@H]3C(=O)N[C@H](C(=O)N[C@H](C(=O)O)c4cc(O)cc(O)c4-c4cc3ccc4O)[C@H](O)c3ccc(c(Cl)c3)Oc3cc2cc(c3O[C@@H]2O[C@H](CO)[C@@H](O)[C@H](O)[C@H]2O[C@H]2C[C@](C)(N)[C@H](O)[C@H](C)O2)Oc2ccc(cc2Cl)[C@H]1O` [Vancomycin], the MIC [15] is listed as 0.7 mg/L (≈ 0.483 µM), the “MIC Control Range” value [16] is listed as “Vancomycin (Control 0.5-2.0) mg/L” and the “MIC Control Range” value [17] is listed as “Vancomycin (Control 0.06-0.5) mg/L”.
With `Nc1[nH]c(=O)ncc1F` [Flucytosine] the MIC [7] was 0.25 mg/L (≈ 1.94 µM), the MIC [8] was 0.063 mg/L (≈ 0.488 µM) and the MIC [9] was 3.67 mg/L (≈ 28.4 µM). The “MIC Control Range” value [13] was 0.06 to 0.25 µg/mL and the “MIC Control Range” value [14] was 4 to 16 µg/mL.
For acemannan, the cytotoxicity [18] is given as “non-cytotoxic”, the “adverse effects or allergic reactions” value (healthy patients) is given as “No patients reported adverse effects or allergic reactions” and the “pre- versus post-test blood values (kidney and liver function)” value (healthy patients) is given as “no statistical difference”.
